Where “and” joins values, the source holds several entries; their conditions need not be identical. Equal values may be shown once.
Assays:
BZD (central) = assay: Cerep panel binding assay; conditions: 10 µM, agonist radioligand
Experimental: (§1) 1.4 Safety Pharmacology of Compound 24
(§2) 1.4.1 Cerep panel (Eurofins)
(§3) Compound 24 was further profiled for its off-target interactions against a panel of 44 targets. The
(§4) screening was done by Eurofins Pharma Discovery within the SafetyScreen44 Panel (Cerep, ITEM
(§5) P270). In all assays binding/functional inhibition was determined at 10 µM.
(§6) Table S6. […]

AR (h) = target: T1, AR (h) (Homo sapiens, UniProt P10275, T878A); assay: Cerep panel binding assay; conditions: agonist radioligand
T1 construct: purchased Eurofins Pharma Discovery (Cerep) SafetyScreen44 Panel, ITEM P270
Experimental: as §1, §2, §3, §4, §5, §6

MAO-A = target: T2, MAO-A (Rattus norvegicus, UniProt P21396); assay: Cerep panel binding assay; conditions: antagonist radioligand
T2 construct: purchased Eurofins Pharma Discovery (Cerep) SafetyScreen44 Panel, ITEM P270
Experimental: as §1, §2, §3, §4, §5, §6

kappa (h) (KOP) = target: T3, kappa (h) (KOP) (Homo sapiens, UniProt P41145); assay: Cerep panel binding assay; conditions: agonist radioligand
T3 construct: purchased Eurofins Pharma Discovery (Cerep) SafetyScreen44 Panel, ITEM P270
Experimental: as §1, §2, §3, §4, §5, §6

delta (DOP) (h) = target: T4, delta (DOP) (h) (Homo sapiens, UniProt P41143); assay: Cerep panel binding assay; conditions: agonist radioligand
T4 construct: purchased Eurofins Pharma Discovery (Cerep) SafetyScreen44 Panel, ITEM P270
Experimental: as §1, §2, §3, §4, §5, §6

D1 (h) = target: T5, D1 (h) (Homo sapiens, UniProt P21728); assay: Cerep panel binding assay; conditions: antagonist radioligand
T5 construct: purchased Eurofins Pharma Discovery (Cerep) SafetyScreen44 Panel, ITEM P270
Experimental: as §1, §2, §3, §4, §5, §6

D2S (h) = target: T6, D2S (h) (Homo sapiens, UniProt P14416); assay: Cerep panel binding assay; conditions: agonist radioligand
T6 construct: Eurofins Pharma Discovery (CRO that ran the assay) SafetyScreen44 Panel (Cerep, ITEM P270)
Experimental: as §1, §2, §3, §4, §5, §6

5-HT2A (h) = target: T7, 5-HT2A (h) (Homo sapiens, UniProt P28223); assay: Cerep panel binding assay; conditions: agonist radioligand
T7 construct: Eurofins Pharma Discovery (CRO that ran the assay) SafetyScreen44 Panel (Cerep, ITEM P270)
Experimental: as §1, §2, §3, §4, §5, §6

M3 (h) = target: T8, M3 (h) (Homo sapiens, UniProt P20309); assay: Cerep panel binding assay; conditions: antagonist radioligand
T8 construct: Eurofins Pharma Discovery (CRO that ran the assay) SafetyScreen44 Panel (Cerep, ITEM P270)
Experimental: as §1, §2, §3, §4, §5, §6

H1 (h) = target: T9, H1 (h) (Homo sapiens, UniProt P35367); assay: Cerep panel binding assay; conditions: antagonist radioligand
T9 construct: purchased Eurofins Pharma Discovery (Cerep) SafetyScreen44 Panel, ITEM P270
Experimental: as §1, §2, §3, §4, §5, §6

CB1 (h) = target: T10, CB1 (h) (Homo sapiens, UniProt P21554); assay: Cerep panel binding assay; conditions: agonist radioligand
T10 construct: purchased Eurofins Pharma Discovery (Cerep) SafetyScreen44 Panel, ITEM P270
Experimental: as §1, §2, §3, §4, §5, §6

ETA (h) = target: T11, ETA (h) (Homo sapiens, UniProt P25101); assay: Cerep panel binding assay; conditions: agonist radioligand
T11 construct: Eurofins Pharma Discovery (CRO that ran the assay) SafetyScreen44 Panel (Cerep, ITEM P270)
Experimental: as §1, §2, §3, §4, §5, §6

5-HT3 (h) = target: T12, 5-HT3 (h) (Homo sapiens, UniProt P46098); assay: Cerep panel binding assay; conditions: antagonist radioligand
T12 construct: purchased Eurofins Pharma Discovery (Cerep) SafetyScreen44 Panel, ITEM P270
Experimental: as §1, §2, §3, §4, §5, §6

[1] = target: T13, N neuronal alpha4beta2 (h) (Homo sapiens, UniProt P17787+P43681); assay: Cerep panel binding assay; conditions: agonist radioligand
T13 construct: Eurofins Pharma Discovery (CRO that ran the assay) SafetyScreen44 Panel (Cerep, ITEM P270)
Experimental: as §1, §2, §3, §4, §5, §6

alpha2A (h) = target: T14, alpha2A (h) (Homo sapiens, UniProt P08913); assay: Cerep panel binding assay; conditions: antagonist radioligand
T14 construct: purchased Eurofins Pharma Discovery (Cerep) SafetyScreen44 Panel, ITEM P270
Experimental: as §1, §2, §3, §4, §5, §6

5-HT1A (h) = target: T15, 5-HT1A (h) (Homo sapiens, UniProt P08908); assay: Cerep panel binding assay; conditions: agonist radioligand
T15 construct: purchased Eurofins Pharma Discovery (Cerep) SafetyScreen44 Panel, ITEM P270
Experimental: as §1, §2, §3, §4, §5, §6

alpha1A (h) = target: T16, alpha1A (h) (Homo sapiens, UniProt P35348); assay: Cerep panel binding assay; conditions: antagonist radioligand
T16 construct: purchased Eurofins Pharma Discovery (Cerep) SafetyScreen44 Panel, ITEM P270
Experimental: as §1, §2, §3, §4, §5, §6

KV channel = assay: Cerep panel binding assay; conditions: 10 µM, antagonist radioligand
Experimental: as §1, §2, §3, §4, §5, §6

mu (MOP) (h) = target: T17, mu (MOP) (h) (Homo sapiens, UniProt P35372); assay: Cerep panel binding assay; conditions: agonist radioligand
T17 construct: purchased Eurofins Pharma Discovery (Cerep) SafetyScreen44 Panel, ITEM P270
Experimental: as §1, §2, §3, §4, §5, §6

CB2 (h) = target: T18, CB2 (h) (Homo sapiens, UniProt P34972); assay: Cerep panel binding assay; conditions: agonist radioligand
T18 construct: purchased Eurofins Pharma Discovery (Cerep) SafetyScreen44 Panel, ITEM P270
Experimental: as §1, §2, §3, §4, §5, §6

5-HT transporter (h) = target: T19, 5-HT transporter (h) (Homo sapiens, UniProt P31645); assay: Cerep panel binding assay; conditions: antagonist radioligand
T19 construct: purchased Eurofins Pharma Discovery (Cerep) SafetyScreen44 Panel, ITEM P270
Experimental: as §1, §2, §3, §4, §5, §6

5-HT1B (h) = target: T20, 5-HT1B (h) (Homo sapiens, UniProt P28222); assay: Cerep panel binding assay; conditions: antagonist radioligand
T20 construct: Eurofins Pharma Discovery (CRO that ran the assay) SafetyScreen44 Panel (Cerep, ITEM P270)
Experimental: as §1, §2, §3, §4, §5, §6

NMDA = assay: Cerep panel binding assay; conditions: 10 µM, antagonist radioligand
Experimental: as §1, §2, §3, §4, §5, §6

GR (h) = target: T21, GR (h) (Homo sapiens, UniProt P04150); assay: Cerep panel binding assay; conditions: agonist radioligand
T21 construct: purchased Eurofins Pharma Discovery (Cerep) SafetyScreen44 Panel, ITEM P270
Experimental: as §1, §2, §3, §4, §5, §6

M1 (h) = target: T22, M1 (h) (Homo sapiens, UniProt P11229); assay: Cerep panel binding assay; conditions: antagonist radioligand
T22 construct: Eurofins Pharma Discovery (CRO that ran the assay) SafetyScreen44 Panel (Cerep, ITEM P270)
Experimental: as §1, §2, §3, §4, §5, §6

H2 (h) = target: T23, H2 (h) (Homo sapiens, UniProt P25021); assay: Cerep panel binding assay; conditions: antagonist radioligand
T23 construct: Eurofins Pharma Discovery (CRO that ran the assay) SafetyScreen44 Panel (Cerep, ITEM P270)
Experimental: as §1, §2, §3, §4, §5, §6

CCK1 (CCKA) (h) = target: T24, CCK1 (CCKA) (h) (Homo sapiens, UniProt P32238); assay: Cerep panel binding assay; conditions: agonist radioligand
T24 construct: Eurofins Pharma Discovery (CRO that ran the assay) SafetyScreen44 Panel (Cerep, ITEM P270)
Experimental: as §1, §2, §3, §4, §5, §6

beta1 (h) = target: T25, beta1 (h) (Homo sapiens, UniProt P08588); assay: Cerep panel binding assay; conditions: agonist radioligand
T25 construct: purchased Eurofins Pharma Discovery (Cerep) SafetyScreen44 Panel, ITEM P270
Experimental: as §1, §2, §3, §4, §5, §6

beta2 (h) = target: T26, beta2 (h) (Homo sapiens, UniProt P07550); assay: Cerep panel binding assay; conditions: antagonist radioligand
T26 construct: purchased Eurofins Pharma Discovery (Cerep) SafetyScreen44 Panel, ITEM P270
Experimental: as §1, §2, §3, §4, §5, §6

[2] = Plasma protein binding, human (equilibrium dialysis); format: in vitro ADME
Experimental: (§7) 1.4.4 Pharmacokinetic and off-target functional assays (Cyprotex)
(§8) Compound 24 was assayed at Cyprotex in functional assays for interference with important off-targets as well as important pharmacokinetic parameters. With the exception of plasma protein binding, a dose-response relationship was studied in order to calculate IC50 values.
(§9) Table S10. Information on in vitro ADMET assays performed at Cyprotex. […]
Plasma protein binding assay (human and Equilibrium dialysis […]
(§10) An increase in the number of colonies of at least two-fold over baseline (mean + SD of the vehicle control) and a dose response indicate a positive response. An […]
(§11) different from the vehicle control.
(§12) Where indicated, S9 fraction from the livers of Aroclor 1254-treated rats were included in the incubation at a final concentration of 4.5%. A NADPH-regenerating system was also included to ensure a steady supply of reducing equivalents.

CYP1A = CYP1A (Homo sapiens, UniProt P05177); assay: Cytochrome P450 inhibition assay, CYP1A; format: in vitro ADME
Experimental: as §7, §8, §9, §10, §11, §12

hERG = target: T27, hERG (Homo sapiens, UniProt Q12809); assay: hERG safety, single cell electrophysiology; format: cell-based; conditions: read-out: hERG inhibition IC50
T27 construct: Cyprotex
Experimental: as §7, §8, §9, §10, §11, §12

[3] = system: Ca2+ channel (L, dihydropyridine site); assay: Cerep panel binding assay; design: species or system rat; conditions: 10 µM, antagonist radioligand
Experimental: as §1, §2, §3, §4, §5
Table S6. List of binding assays within the CEREP44 off-target panel and binding data for compound

T17 sequence (P35372 whole entry): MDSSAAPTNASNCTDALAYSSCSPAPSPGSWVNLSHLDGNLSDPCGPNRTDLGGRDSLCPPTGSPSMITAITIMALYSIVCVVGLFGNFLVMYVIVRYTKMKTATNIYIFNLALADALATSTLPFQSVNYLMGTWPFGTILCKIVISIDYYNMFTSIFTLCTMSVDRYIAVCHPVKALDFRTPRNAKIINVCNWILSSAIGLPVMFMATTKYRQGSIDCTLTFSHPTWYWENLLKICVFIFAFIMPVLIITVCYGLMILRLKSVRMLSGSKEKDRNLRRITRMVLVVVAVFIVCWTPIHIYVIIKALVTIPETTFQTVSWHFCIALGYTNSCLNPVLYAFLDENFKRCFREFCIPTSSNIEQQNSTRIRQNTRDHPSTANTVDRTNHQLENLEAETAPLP
T10 sequence (P21554 whole entry): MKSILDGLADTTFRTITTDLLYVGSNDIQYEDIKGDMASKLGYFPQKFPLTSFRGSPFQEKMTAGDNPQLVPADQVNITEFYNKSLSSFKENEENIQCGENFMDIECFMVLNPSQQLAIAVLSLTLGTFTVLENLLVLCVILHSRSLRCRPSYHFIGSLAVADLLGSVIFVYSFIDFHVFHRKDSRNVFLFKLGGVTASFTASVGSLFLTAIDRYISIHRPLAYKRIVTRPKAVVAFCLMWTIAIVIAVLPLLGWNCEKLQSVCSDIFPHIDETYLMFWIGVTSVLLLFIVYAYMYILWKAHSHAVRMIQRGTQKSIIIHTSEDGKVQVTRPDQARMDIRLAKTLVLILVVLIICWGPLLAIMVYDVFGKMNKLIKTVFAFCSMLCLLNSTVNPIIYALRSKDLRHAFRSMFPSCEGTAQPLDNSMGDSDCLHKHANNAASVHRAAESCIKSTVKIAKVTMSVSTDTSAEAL
T14 sequence (P08913 whole entry): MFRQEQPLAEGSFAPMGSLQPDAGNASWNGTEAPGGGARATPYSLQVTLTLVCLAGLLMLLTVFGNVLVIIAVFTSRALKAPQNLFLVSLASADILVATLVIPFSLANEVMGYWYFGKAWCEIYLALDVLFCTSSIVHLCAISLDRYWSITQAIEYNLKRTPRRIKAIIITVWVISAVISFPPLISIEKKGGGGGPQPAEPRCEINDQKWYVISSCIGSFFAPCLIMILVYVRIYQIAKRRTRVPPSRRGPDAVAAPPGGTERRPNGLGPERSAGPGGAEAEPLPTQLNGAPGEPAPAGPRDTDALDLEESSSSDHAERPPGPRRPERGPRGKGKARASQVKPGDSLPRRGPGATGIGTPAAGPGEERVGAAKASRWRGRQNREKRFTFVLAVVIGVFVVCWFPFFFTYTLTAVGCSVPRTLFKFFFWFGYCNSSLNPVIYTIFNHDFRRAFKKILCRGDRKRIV
T3 sequence (P41145 whole entry): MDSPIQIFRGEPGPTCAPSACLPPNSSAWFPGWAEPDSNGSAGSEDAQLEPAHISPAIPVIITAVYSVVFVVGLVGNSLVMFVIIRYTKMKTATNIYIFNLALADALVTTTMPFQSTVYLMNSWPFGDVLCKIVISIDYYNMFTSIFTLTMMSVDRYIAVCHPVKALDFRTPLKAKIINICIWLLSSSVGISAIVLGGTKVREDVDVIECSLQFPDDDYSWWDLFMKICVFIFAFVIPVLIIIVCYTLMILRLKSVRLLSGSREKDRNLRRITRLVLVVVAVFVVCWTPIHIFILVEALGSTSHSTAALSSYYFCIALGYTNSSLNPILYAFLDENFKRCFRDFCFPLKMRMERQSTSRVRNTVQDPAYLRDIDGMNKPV
T4 sequence (P41143 whole entry): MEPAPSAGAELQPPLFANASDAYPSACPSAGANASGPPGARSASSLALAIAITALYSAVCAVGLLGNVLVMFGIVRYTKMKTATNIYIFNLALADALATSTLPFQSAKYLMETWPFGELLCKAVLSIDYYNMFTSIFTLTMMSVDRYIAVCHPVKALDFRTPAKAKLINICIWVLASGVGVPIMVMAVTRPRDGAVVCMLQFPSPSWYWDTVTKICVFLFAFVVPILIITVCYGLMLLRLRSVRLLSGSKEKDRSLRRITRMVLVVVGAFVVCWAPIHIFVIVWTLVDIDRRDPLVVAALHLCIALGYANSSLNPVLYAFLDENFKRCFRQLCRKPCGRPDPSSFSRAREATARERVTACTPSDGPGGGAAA
T19 sequence (P31645 whole entry): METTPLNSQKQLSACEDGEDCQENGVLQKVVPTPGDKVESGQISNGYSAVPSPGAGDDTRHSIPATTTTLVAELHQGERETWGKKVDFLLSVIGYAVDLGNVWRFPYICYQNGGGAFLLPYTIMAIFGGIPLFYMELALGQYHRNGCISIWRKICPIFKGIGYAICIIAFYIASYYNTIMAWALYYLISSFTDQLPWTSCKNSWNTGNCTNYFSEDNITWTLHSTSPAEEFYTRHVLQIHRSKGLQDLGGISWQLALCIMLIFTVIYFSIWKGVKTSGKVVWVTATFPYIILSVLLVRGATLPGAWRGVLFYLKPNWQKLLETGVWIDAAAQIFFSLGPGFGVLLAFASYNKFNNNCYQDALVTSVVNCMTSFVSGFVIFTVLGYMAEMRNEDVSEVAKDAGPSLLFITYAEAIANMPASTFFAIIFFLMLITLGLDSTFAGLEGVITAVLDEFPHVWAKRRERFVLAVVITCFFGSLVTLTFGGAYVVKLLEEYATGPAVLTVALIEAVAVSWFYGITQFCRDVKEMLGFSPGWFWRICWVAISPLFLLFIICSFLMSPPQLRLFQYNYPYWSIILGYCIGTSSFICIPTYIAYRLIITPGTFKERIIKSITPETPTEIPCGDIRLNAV
T24 sequence (P32238 whole entry): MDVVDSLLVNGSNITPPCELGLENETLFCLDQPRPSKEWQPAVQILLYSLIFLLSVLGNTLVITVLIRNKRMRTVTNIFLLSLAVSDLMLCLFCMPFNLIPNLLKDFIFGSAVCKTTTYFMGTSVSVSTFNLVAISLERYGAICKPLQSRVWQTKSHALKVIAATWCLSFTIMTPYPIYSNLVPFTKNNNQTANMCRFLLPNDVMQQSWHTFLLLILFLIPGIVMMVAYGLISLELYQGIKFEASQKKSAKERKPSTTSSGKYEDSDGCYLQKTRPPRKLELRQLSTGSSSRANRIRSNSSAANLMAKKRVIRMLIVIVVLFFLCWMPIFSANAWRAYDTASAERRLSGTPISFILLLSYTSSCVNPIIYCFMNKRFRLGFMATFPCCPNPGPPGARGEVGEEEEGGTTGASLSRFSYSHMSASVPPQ
T26 sequence (P07550 whole entry): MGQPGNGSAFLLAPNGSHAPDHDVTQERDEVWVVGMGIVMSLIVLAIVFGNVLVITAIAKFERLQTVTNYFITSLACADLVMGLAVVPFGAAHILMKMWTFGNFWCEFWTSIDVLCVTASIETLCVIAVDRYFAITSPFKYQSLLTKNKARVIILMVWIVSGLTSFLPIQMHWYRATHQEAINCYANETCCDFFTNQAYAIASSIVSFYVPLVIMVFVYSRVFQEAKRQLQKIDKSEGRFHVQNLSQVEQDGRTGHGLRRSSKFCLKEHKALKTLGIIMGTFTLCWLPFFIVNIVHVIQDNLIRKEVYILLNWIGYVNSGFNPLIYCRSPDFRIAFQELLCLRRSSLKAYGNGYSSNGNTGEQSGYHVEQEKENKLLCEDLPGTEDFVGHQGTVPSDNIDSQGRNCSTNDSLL
T23 sequence (P25021 whole entry): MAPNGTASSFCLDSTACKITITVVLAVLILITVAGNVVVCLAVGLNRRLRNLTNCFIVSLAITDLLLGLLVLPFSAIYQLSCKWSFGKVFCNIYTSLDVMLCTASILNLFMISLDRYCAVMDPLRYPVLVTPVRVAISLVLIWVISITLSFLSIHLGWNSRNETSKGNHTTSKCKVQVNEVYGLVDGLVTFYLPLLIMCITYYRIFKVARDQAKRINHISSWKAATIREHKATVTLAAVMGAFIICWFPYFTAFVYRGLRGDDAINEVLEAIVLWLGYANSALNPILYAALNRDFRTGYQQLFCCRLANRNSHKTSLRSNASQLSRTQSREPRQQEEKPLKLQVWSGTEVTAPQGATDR
T1 sequence (P10275 whole entry T878A): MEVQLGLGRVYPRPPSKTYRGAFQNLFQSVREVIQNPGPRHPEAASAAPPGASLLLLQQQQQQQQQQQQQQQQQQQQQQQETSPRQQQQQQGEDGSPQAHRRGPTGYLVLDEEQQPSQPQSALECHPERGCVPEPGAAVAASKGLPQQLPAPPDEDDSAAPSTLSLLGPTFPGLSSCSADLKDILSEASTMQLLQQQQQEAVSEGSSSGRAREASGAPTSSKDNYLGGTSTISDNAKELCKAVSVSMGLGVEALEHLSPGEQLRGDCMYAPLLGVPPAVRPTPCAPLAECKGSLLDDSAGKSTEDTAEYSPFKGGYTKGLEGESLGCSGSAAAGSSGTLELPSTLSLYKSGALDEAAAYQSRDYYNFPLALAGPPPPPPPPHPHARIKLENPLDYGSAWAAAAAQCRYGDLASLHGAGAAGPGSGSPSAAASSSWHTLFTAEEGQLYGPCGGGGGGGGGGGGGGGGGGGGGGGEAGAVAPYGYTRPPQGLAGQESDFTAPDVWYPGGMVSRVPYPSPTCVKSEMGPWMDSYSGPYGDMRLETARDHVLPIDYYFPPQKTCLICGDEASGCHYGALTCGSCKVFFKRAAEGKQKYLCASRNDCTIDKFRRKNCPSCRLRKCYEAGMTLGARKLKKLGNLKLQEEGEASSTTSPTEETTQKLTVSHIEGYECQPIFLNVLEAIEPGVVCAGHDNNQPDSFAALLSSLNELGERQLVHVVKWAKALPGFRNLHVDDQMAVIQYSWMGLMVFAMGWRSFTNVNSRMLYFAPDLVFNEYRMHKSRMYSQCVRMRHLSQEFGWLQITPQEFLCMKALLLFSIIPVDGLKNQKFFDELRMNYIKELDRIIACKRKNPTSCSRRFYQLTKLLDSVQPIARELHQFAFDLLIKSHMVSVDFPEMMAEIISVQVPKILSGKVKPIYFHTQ

## CC(C)Oc1ccc(-c2ncc(CNc3ccnc(C(F)(F)F)c3)cn2)cc1Cl [Compound 24]
BZD (central)
  BINDING (%): –27.1%
AR (h)
  inhibition at 10 µM: 12.7%
MAO-A
  inhibition at 10 µM: 24.9%
Kappa (h) (KOP)
  inhibition at 10 µM: 23.6%
Delta (DOP) (h)
  inhibition at 10 µM: 14.5%
D1 (h)
  inhibition at 10 µM: 12.2%
D2S (h)
  inhibition at 10 µM: -0.6%
5-HT2A (h)
  inhibition at 10 µM: -2.8%
M3 (h)
  inhibition at 10 µM: -2%
H1 (h)
  inhibition at 10 µM: 8.2%
CB1 (h)
  inhibition at 10 µM: 16.3%
ETA (h)
  inhibition at 10 µM: -0.3%
5-HT3 (h)
  inhibition at 10 µM: 4.4%
[1]
  inhibition at 10 µM: -4.7%
alpha2A (h)
  inhibition at 10 µM: 8.4%
5-HT1A (h)
  inhibition at 10 µM: 11.3%
alpha1A (h)
  inhibition at 10 µM: 3.4%
KV channel
  BINDING (%): 14.2%
Mu (MOP) (h)
  inhibition at 10 µM: 8.2%
CB2 (h)
  inhibition at 10 µM: 31%
5-HT transporter (h)
  inhibition at 10 µM: 49.8%
5-HT1B (h)
  inhibition at 10 µM: -6.7%
NMDA
  BINDING (%): 0.9%
GR (h)
  inhibition at 10 µM: 16.2%
M1 (h)
  inhibition at 10 µM: -5.9%
H2 (h)
  inhibition at 10 µM: -30%
CCK1 (CCKA) (h)
  inhibition at 10 µM: -12%
beta1 (h)
  inhibition at 10 µM: 7.1%
beta2 (h)
  inhibition at 10 µM: 7.9%
[2]
  Plasma binding human: >99%
CYP1A
  IC50: > 25 µM
hERG
  IC50: 15.8 µM
[3]
  BINDING (%): 75.3% and > 50%

From paper PMC9929129, “Towards Translation of PqsR Inverse Agonists: From In Vitro Efficacy Optimization to In Vivo Proof‐of‐Principle” (Advanced Science, 2023)
